From patent US4076703A, “Dipeptide derivatives and their production” (Shionogi & Co., Ltd., priority 1974, dated 1978)

Tests used:
DS male mice [1] = assay: Anti-pentylenetetrazol activity; details: for Anti-pentylenetetrazol activity, ED50: test compound given orally 60 minutes prior to 125 mg/kg s.c. pentylenetetrazol, complete protection against mortality, observed 2 hours; for times more potent than diazepam in the anti-pentylenetetrazol activity: relative to diazepam (Compound No. 5)
Protocol: This test was measured on a group of 10 DS male mice. […] In this test, the test compound was given orally 60 minutes prior to the administration of pentylenetetrazol. The observation was made for 2 hours after the administration of pentylenetetrazol. The criterion of anticonvulsant activity was determined as being complete protection against mortality. The convulsions were disregarded. Results were shown as ED50 [Goodman, et al.: J. Pharmacol., 108, 168 (1953)].

DS male mice [2] = assay: Taming activity (inhibition of electroshock-induced fighting); format: in vivo; details: for Taming activity ED50: administered 60 minutes prior to experiment, inhibition of fighting responses, 5 pairs of mice; for times more potent than diazepam in the taming activity: relative to diazepam (Compound No. 5)
Protocol: (§1) This test was measured on DS male mice.
These pairs of mice were selected in the morning and used for drug test in the afternoon. The test compound was administered to both mice of the pairs 60 minutes prior to the experiment. Results were obtained as the mean percentage of inhibition of fighting responses in a group of 5 pairs and shown by ED50 [Tedeschi, et al.: J. Pharmacol Exp. Thev., 125, 28-34 (1959)].

DS male mice [3] = details: oral single dose, observed for 72 hours, Bliss method
Protocol: The test compound was orally administered to DS male mice in different single doses. For each dose, 10 mice were used, their weight ranging from 20 to 23 grams. […] The mortality was calculated by the Bliss method [Bliss: Ann.

DS male mice [4] = assay: Rotarod performance activity; format: in vivo; details: mouse falling from rod (5 rotations per minute) within less than 2 minutes
Protocol: 3. Rotarod performance activity:
as §1
The mouse was put on a scraped rod of wood, 3 cm in diameter, turning at the rate of five rotations per minute. The mice that could remain on the rod for 3 or more minutes in successive trails were selected and placed in a group of 10 mice for each dose. If the mouse fell down from the rod within less than 2 minutes, the test compound was considered to be effective. Results were shown by ED50 [Dunham, et al.: J. Am. Pharm. Assoc., 46, 208 (1957)].

[5] = relative to chlordiazepoxide (Compound No. 4)

Row | Structure (SMILES) | times more potent than chlordiazepoxide in the anti-pentylenetetrazol activity (DS male mice [1]; [5]) | Anti-pentylenetetrazol activity, ED50 (DS male mice [1]) | times more potent than chlordiazepoxide in the taming activity (DS male mice [2]; [5]) | times more potent than diazepam in the anti-pentylenetetrazol activity (DS male mice [1]) | Taming activity ED50 (DS male mice [2]) | times more potent than diazepam in the taming activity (DS male mice [2]) | Acute toxicity LD50 (DS male mice [3]) | Rotarod performance ED50 (DS male mice [4])
1 | CN(C(=O)CNC(=O)CN)c1ccc(Cl)cc1C(=O)c1ccccc1 [Compound No. 1, 2-benzoyl-4-chloro-N-methyl-N^α -glycyl-glycinanilide] | 2 to 3 times | 1.0 mg/kg | 2 to 3 times | – | – | – | – | –
2 | CN(C(=O)CNC(=O)CN)c1ccc(Cl)cc1C(=O)c1ccccc1Cl.O [Compound No. 2, 2-o-chlorobenzoyl-4-chloro-N-methyl-N^α -glycyl-glycinanilide hydrate] | – | 0.58 mg/kg | – | 2 to 4 times | 3.0 mg/kg | 2 to 4 times | – | –
3 | CN(C(=O)CNC(=O)CN)c1ccc(Cl)cc1C(=O)c1ccccc1F.Cl [Compound No. 3, 2-o-fluorobenzoyl-4-chloro-N-methyl-N^α -glycyl-glycinanilide hydrochloride] | – | 0.33 mg/kg | – | 2 to 4 times | 1.6 mg/kg | 2 to 4 times | > 1000 mg/kg | 17.0 mg/kg
4 | CNC1=Nc2ccc(Cl)cc2C(c2ccccc2)=[N+]([O-])C1 [Compound No. 4, Chlordiazepoxide] | – | – | – | – | – | – | – | 50.0 mg/kg
5 | CN1C(=O)CN=C(c2ccccc2)c2cc(Cl)ccc21 [Compound No. 5, Diazepam] | – | – | – | – | – | – | – | 9.03 mg/kg
